In ChEMBL document CHEMBL1128843, “Protein kinase C- inhibitors; structure-activity relationships in bis-indole series” (Bioorg Med Chem Lett, 1995):

Molecular target: Protein kinase C alpha type (Homo sapiens, UniProt P17252)
Assay: Inhibition of Protein kinase C alpha

| IC50 | Structure (SMILES) |
| --- | --- |
| 170 nM | COC(=O)c1cc(NC(=O)c2cc(C(=O)c3cc(NC(=O)Cn4cc(C5=C(c6c[nH]c7ccccc67)C(=O)NC5=O)c5ccccc54)cn3C)cn2C)cn1C |
| 460 nM | CN(C)CCCNC(=O)c1cc(NC(=O)c2cc(NC(=O)c3cc(NC(=O)Cn4cc(C5=C(c6c[nH]c7ccccc67)C(=O)NC5=O)c5ccccc54)cn3C)cn2C)cn1C |
| 280 nM | COC(=O)c1cc(NC(=O)c2cc(NC(=O)Cn3cc(C4=C(c5c[nH]c6ccccc56)C(=O)NC4=O)c4ccccc43)cn2C)cn1C |
| 630 nM | CN(C)CCCNC(=O)c1cc(NC(=O)c2cc(NC(=O)Cn3cc(C4=C(c5c[nH]c6ccccc56)C(=O)NC4=O)c4ccccc43)cn2C)cn1C |
| 1000 nM | CN(C)CCCNC(=O)c1cc(NC(=O)Cn2cc(C3=C(c4c[nH]c5ccccc45)C(=O)NC3=O)c3ccccc32)cn1C |
| 500 nM | COC(=O)c1cc(NC(=O)Cn2cc(C3=C(c4c[nH]c5ccccc45)C(=O)NC3=O)c3ccccc32)cn1C |
| 10 nM | CN(C)CCCn1cc(C2=C(c3c[nH]c4ccccc34)C(=O)NC2=O)c2ccccc21 [GF-109203] |
